From US10513521B2, “Compositions and methods for inhibiting BMP” (The Brigham and Women's Hospital, Inc., priority 2014, dated 2019) come the findings set out here.

One experiment has as its target T1, ALK2 (Homo sapiens, UniProt Q04771).
T1 sequence (Q04771 21-509): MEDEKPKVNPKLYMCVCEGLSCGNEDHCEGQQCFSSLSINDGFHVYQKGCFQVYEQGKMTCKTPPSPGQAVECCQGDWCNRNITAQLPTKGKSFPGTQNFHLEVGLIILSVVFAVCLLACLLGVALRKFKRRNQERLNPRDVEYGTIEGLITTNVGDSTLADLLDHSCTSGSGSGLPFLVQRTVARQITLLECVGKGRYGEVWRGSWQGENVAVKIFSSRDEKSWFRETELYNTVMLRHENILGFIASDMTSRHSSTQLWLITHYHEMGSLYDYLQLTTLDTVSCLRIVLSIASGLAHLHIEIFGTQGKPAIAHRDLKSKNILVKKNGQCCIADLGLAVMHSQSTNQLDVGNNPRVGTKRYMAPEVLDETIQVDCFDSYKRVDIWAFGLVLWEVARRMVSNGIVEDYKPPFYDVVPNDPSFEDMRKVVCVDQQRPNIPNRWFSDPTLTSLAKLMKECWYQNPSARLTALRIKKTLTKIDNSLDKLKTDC
The experiment is described as follows: TR-FRET enzymatic ALK kinase assay, ALK2.

The target of a further experiment is ALK1 (Homo sapiens, UniProt P37023). Briefly: TR-FRET enzymatic ALK kinase assay, ALK1. (In general: TR-FRET usually uses a lanthanide donor and a delayed reading to cut background.)
In another experiment the target is T2, ALK4 (Homo sapiens, UniProt P36896).
T2 sequence (P36896 24-505): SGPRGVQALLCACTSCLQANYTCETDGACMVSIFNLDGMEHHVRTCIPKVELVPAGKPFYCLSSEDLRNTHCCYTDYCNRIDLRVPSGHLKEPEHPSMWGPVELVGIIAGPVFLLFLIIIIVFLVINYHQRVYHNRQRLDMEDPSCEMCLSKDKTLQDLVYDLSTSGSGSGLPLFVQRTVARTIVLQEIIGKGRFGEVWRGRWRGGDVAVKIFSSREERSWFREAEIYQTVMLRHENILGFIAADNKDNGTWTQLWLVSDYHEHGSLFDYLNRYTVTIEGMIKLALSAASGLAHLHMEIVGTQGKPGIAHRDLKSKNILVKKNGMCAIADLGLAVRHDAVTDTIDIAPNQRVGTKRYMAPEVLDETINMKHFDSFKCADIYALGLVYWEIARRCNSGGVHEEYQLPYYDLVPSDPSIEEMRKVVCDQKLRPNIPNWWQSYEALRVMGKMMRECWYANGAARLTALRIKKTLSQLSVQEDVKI
Briefly: TR-FRET enzymatic ALK kinase assay, ALK4.

Another experiment has as its target ALK3 (Homo sapiens, UniProt P36894). Briefly: TR-FRET enzymatic ALK kinase assay, ALK3.
In the next experiment the target is ALK6 (Homo sapiens, UniProt O00238). The experiment is described as follows: TR-FRET enzymatic ALK kinase assay, ALK6.
The next experiment has as its target T3, ALK5 (Homo sapiens, UniProt P36897).
T3 sequence (P36897 34-503): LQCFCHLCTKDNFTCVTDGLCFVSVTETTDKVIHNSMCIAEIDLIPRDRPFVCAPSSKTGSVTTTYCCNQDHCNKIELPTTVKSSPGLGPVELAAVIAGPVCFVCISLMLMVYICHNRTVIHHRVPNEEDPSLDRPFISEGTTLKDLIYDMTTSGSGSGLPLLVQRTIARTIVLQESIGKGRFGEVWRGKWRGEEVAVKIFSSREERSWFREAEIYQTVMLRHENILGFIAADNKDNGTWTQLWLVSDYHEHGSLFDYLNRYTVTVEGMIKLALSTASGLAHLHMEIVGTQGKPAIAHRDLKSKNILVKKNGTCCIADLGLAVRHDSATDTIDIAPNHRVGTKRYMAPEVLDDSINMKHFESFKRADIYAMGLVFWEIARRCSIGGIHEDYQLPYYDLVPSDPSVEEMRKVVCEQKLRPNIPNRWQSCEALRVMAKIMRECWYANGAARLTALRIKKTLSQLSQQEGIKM
Briefly: TR-FRET enzymatic ALK kinase assay, ALK5.

Where a name gives a salt, the structure may show the parent alone.

Sequence of ALK1 (P37023 22-503): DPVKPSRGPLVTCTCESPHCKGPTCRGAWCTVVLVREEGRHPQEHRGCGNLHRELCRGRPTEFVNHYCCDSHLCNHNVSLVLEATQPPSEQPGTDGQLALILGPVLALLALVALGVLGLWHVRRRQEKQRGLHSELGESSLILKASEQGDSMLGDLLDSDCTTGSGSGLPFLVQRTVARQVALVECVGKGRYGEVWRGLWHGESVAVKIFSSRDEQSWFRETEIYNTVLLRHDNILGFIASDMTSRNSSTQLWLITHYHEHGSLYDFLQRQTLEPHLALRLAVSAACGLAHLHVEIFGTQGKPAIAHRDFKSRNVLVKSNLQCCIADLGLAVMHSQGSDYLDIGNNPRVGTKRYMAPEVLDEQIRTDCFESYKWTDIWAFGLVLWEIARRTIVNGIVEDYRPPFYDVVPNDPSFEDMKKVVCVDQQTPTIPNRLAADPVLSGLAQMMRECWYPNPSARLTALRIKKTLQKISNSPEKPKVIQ
Sequence of ALK3 (P36894 24-532): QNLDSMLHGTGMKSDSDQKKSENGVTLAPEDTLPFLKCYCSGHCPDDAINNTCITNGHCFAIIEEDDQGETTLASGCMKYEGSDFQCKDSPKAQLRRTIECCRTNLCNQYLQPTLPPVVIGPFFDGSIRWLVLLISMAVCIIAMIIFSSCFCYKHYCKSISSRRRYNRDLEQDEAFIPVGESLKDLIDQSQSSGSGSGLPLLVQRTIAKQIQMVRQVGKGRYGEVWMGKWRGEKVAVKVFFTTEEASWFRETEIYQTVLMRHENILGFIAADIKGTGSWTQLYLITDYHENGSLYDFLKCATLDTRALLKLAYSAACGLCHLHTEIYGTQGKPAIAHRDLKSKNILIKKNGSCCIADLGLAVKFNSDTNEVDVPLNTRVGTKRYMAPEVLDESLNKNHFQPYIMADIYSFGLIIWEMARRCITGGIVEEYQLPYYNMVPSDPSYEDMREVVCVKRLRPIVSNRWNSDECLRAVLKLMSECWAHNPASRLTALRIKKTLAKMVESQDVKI
Sequence of ALK6 (O00238 14-502): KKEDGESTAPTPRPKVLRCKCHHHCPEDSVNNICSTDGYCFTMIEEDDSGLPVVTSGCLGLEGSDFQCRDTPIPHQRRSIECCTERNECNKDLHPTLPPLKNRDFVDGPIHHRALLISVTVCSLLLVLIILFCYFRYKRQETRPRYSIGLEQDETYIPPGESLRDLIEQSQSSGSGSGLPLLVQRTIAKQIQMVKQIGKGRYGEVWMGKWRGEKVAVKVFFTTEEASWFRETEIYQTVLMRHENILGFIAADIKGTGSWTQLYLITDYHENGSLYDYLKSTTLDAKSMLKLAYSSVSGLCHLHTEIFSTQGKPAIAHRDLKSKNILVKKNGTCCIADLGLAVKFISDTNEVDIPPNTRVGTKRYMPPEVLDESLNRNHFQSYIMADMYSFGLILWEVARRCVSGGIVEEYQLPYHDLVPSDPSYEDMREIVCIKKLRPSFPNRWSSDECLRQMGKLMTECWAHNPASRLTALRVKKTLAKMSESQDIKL
Method for ALK1: (§1) Briefly, the ALKs enzymatic assay was initiated by dispense 2.5 μl enzyme in 1× kinase reaction buffer. The assay plate was then added with compounds followed by incubation at room temperature for 10 minutes. Then 2.5 μl/well substrate was added.
Method for ALK2: as §1
Method for ALK3: as §1
Method for ALK4: as §1
Method for ALK5: Six ALK kinase enzyme assays were developed for determination of compound activities on ALK1, ALK2, ALK3, ALK4, ALK5 and ALK6.
as §1
Method for ALK6: as §1

Consider `C[S+](=O)([O-])c1cccc(-c2cnn3cc(-c4ccc(CCN5CCC6(CC5)CNC6)cc4)cnc23)c1` [Compound 178, 6-(4-(2-(2,7-diazaspiro[3.5]nonan-7-yl)ethyl)phenyl)-3-(3-(methylsulfonyl)phenyl)pyrazolo[1,5-a]pyrimidine], for which the IC50 (usually the concentration that inhibits the measured activity by half) is 92 nM against ALK2; greater than 10000 nM at ALK1; greater than 10000 nM at ALK4; greater than 10000 nM on ALK3; greater than 10000 nM on ALK6; greater than 10000 nM on ALK5.
`C[S+](=O)([O-])c1cccc(-c2cnn3cc(-c4ccc(OC5(CN6CC(F)(F)C6)CC5)cc4)cnc23)c1` [Compound 176, 6-(4-(1-((3,3-difluoroazetidin-1-yl)methyl)cyclopropoxy)phenyl)-3-(3-(methylsulfonyl)phenyl)pyrazolo[1,5-a]pyrimidine]: the 50% inhibitory concentration (IC50) is 68 nM against ALK2; 720 nM against ALK1; greater than 10000 nM on ALK4; 2400 nM at ALK3; greater than 10000 nM against ALK6; greater than 10000 nM on ALK5.
Take `CC(O)c1cccc(-c2cnn3cc(-c4ccc(OC5(CN6CCNCC6)CC5)cc4)cnc23)c1` (stereo not drawn) [Compound 168, 1-(3-(6-(4-(1-(piperazin-1-ylmethyl)cyclopropoxy)phenyl)pyrazolo[1,5-a]pyrimidin-3-yl)phenyl)ethanol]: the IC50 on ALK2 is 85 nM; at ALK1 it was 610 nM; against ALK4, greater than 10000 nM; at ALK3, 1700 nM; against ALK6, greater than 10000 nM; on ALK5, greater than 10000 nM.
Consider `CC(N)c1ccc(-c2cnc3c(-c4cccc([S+](C)(=O)[O-])c4)cnn3c2)cc1` (stereo not drawn) [Compound 187, 1-(4-(3-(3-(methylsulfonyl)phenyl)pyrazolo[1,5-a]pyrimidin-6-yl)phenyl)ethanamine], for which the IC50 on ALK2 was 33 nM; on ALK1, 430 nM; on ALK4, greater than 10000 nM; against ALK3 it was greater than 10000 nM; on ALK6 it was greater than 10000 nM; against ALK5, greater than 10000 nM.
In the case of `CS(=O)(=O)c1cccc(-c2cnn3cc(-c4ccc(CC5CCNCC5)cc4)cnc23)c1` [Compound 126, 3-(3-(methylsulfonyl)phenyl)-6-(4-(piperidin-4-ylmethyl)phenyl)pyrazolo[1,5-a]pyrimidine. TFA], the IC50 was 280 nM against ALK2; 900 nM on ALK1; greater than 10000 nM at ALK4; greater than 10000 nM on ALK3; greater than 10000 nM at ALK6; greater than 10000 nM against ALK5.
For `CC(O)c1cccc(-c2cnn3cc(-c4ccc(OCCN5CCCCC5)cc4)cnc23)c1` (stereo not drawn) [Compound 142, 1-(3-(6-(4-(2-(piperidin-1-yl)ethoxy)phenyl)pyrazolo[1,5-a]pyrimidin-3-yl)phenyl)ethanol], the IC50 against ALK2 was 110 nM; against ALK1, 560 nM; against ALK4, greater than 10000 nM; on ALK3 it was 1600 nM; on ALK6, greater than 10000 nM; against ALK5, greater than 10000 nM.
Turning to `COc1ccc2ccccc2c1-c1cnn2cc(-c3ccc(N4[C@H](C)CNC[C@@H]4C)cc3)cnc12` [Compound 34, 6-(4-((2R,6S)-2,6-dimethylpiperazin-1-yl)phenyl)-3-(2-methoxynaphthalen-1-yl)pyrazolo[1,5-a]pyrimidine], the IC50 at ALK2 amounted to 249 nM; against ALK1 it was 1310 nM; against ALK4, 12700 nM; on ALK3, 4860 nM; against ALK6, 17400 nM; against ALK5, 18500 nM.
Take `CS(=O)(=O)c1cccc(-c2cnn3cc(-c4ccc(CCn5ccnc5)cc4)cnc23)c1` [Compound 133, 6-(4-(2-(1H-imidazol-1-yl)ethyl)phenyl)-3-(3-(methylsulfonyl)phenyl)pyrazolo[1,5-a]pyrimidine]: the IC50 is 230 nM against ALK2; 670 nM on ALK1; greater than 10000 nM against ALK4; greater than 10000 nM on ALK3; greater than 10000 nM on ALK6; greater than 10000 nM against ALK5.
As to `C[S+](=O)([O-])c1cccc(-c2cnn3cc(-c4ccc(OC5(CN6CCC7(CC6)CNC7)CC5)cc4)cnc23)c1` [Compound 184, 6-(4-(1-(2,7-diazaspiro[3.5]nonan-7-ylmethyl)cyclopropoxy)phenyl)-3-(3-(methylsulfonyl)phenyl)pyrazolo[1,5-a]pyrimidine], the IC50 against ALK2 is 23 nM; against ALK1 it was 320 nM; against ALK4, greater than 10000 nM; at ALK3 it was 2300 nM; on ALK6 it was greater than 10000 nM; on ALK5, greater than 10000 nM.
Regarding `CS(=O)(=O)c1cccc(-c2cnn3cc(-c4ccc(OC5(CN6CCCC6)CC5)cc4)cnc23)c1` [Compound 170, 3-(3-(methylsulfonyl)phenyl)-6-(4-(1-(pyrrolidin-1-ylmethyl)cyclopropoxy)phenyl)pyrazolo[1,5-a]pyrimidine], the IC50 on ALK2 was 33 nM; against ALK1 it was 270 nM; at ALK4 it was greater than 10000 nM; on ALK3, 1500 nM; on ALK6 it was 9600 nM; against ALK5, greater than 10000 nM.
As for `C[C@@H](O)c1cccc(-c2cnn3cc(-c4ccc(CCN5CCOCC5)cc4)cnc23)c1` [Compound 158, (R)-1-(3-(6-(4-(2-morpholinoethyl)phenyl)pyrazolo[1,5-a]pyrimidin-3-yl)phenyl)ethanol], the IC50 against ALK2 is 250 nM; at ALK1 it was 2500 nM; against ALK4 it was greater than 10000 nM; at ALK3, greater than 10000 nM; on ALK6 it was greater than 10000 nM; on ALK5, greater than 10000 nM.
As to `C[C@@H]1CNC[C@H](C)N1c1ccc(-c2cnc3c(-c4cccc5ccccc45)cnn3c2)cc1` [Compound 31, 6-(4-((2R,6S)-2,6-dimethylpiperazin-1-yl)phenyl)-3-(naphthalen-1-yl)pyrazolo[1,5-a]pyrimidine], the IC50 at ALK2 was 17 nM; against ALK1 it was 51 nM; against ALK4, 6600 nM; against ALK3 it was 271 nM; on ALK6, 1080 nM; on ALK5, 59600 nM.
`C[C@@H](O)c1cccc(-c2cnn3cc(-c4ccc(OCCN5CCCCC5)cc4)cnc23)c1` [Compound 149, (R)-1-(3-(6-(4-(2-(piperidin-1-yl)ethoxy)phenyl)pyrazolo[1,5-a]pyrimidin-3-yl)phenyl)ethanol]: the IC50 on ALK2 is 180 nM; against ALK1, 4500 nM; on ALK4, greater than 10000 nM; against ALK3, 6800 nM; at ALK6, greater than 10000 nM; on ALK5, greater than 10000 nM.
As for `CS(=O)(=O)c1cccc(-c2cnn3cc(-c4ccc(C5(N)CC5)cc4)cnc23)c1` [Compound 190, 1-(4-(3-(3-(methylsulfonyl)phenyl)pyrazolo[1,5-a]pyrimidin-6-yl)phenyl)cyclopropanamine], the IC50 was 44 nM at ALK2; 460 nM against ALK1; greater than 10000 nM on ALK4; 2500 nM at ALK3; greater than 10000 nM on ALK6; greater than 10000 nM against ALK5.
As for `CC(O)c1cccc(-c2cnn3cc(-c4ccc(OC5(CN6CCC(O)CC6)CC5)cc4)cnc23)c1` (stereo not drawn) [Compound 174], the IC50 against ALK2 was 43 nM; against ALK1, 790 nM; on ALK4, greater than 10000 nM; against ALK3, 1600 nM; against ALK6, greater than 10000 nM; against ALK5, greater than 10000 nM.
